Laboratory results as given in patent US9623015B2, “Combination of an anti-cancer agent such as a tyrosinekinase inhibitor and a STAT5 antagonist, preferably a thiazolidinedione, for eliminating hematologic cancer stem cells in vivo and for preventing hematologic cancer relapse” (Commissariat à L'Energie Atomique et aux Energies …, priority 2012, dated 2017).
Entries after “also recorded” stand apart in the source; their conditions may differ.

How the values were obtained:
CD34+ CP-CML cells = test: Liquid culture of CD34+ CP-CML cells (fold expansion, viable cells); format: cell-based, human; parameters: viab (%): concentration or dose not given beside the values; conditions: for viab (%) / Fold exp: serum-free medium without cytokines; for Fold exp, mean: mean of 7 patients
Method: Cell culture and proliferation assays. K562 cells (2×10^5) were cultured in 96-well plates, in complete Dulbecco's Modified Eagle medium supplemented with 10% fetal calf serum (Gibco®, Life technologies) alone or with variable concentrations of pioglitazone or troglitazone. […] Eight replicates were used for each set of conditions and results were obtained after three independents experiments. CD34^+ cells from patients in CP-CML at diagnosis or umbilical cord blood were immunoselected (CD34 microBead Kit, Miltenyi Biotec) according to the manufacturer's instructions. […] Ph1^+-CD34^+ cells were cultured in serum free medium (SFM) StemSpan (StemCell Technologies) without growth factors.
Flow cytometry. […] For all experiment, cell viability was assessed using SYTOX® Blue dead cell stain (Invitrogen Life Technologies).

CP-CML LTC-ICs = test: LTC-IC assay with limiting dilution analysis; format: cell-based, human
Method: Colony Forming Cell (CFC) and Long Term Culture—Initiating Cell (LTC-IC) assays. […] Cells were scored and collected after 14 day incubation at 37° C. and 5% CO2. After scoring, colonies were washed with PBS and kept frozen in RNAlater® (Invitrogen) for subsequent analysis. […] After five weeks with weekly change of one half medium volume, all cells were transferred in alpha-MEM based methylcellulose medium (GF H4434, Stemcell technologies) to determine the total clonogenic cell content of each LTC. LTC-IC frequencies were determined using the L-Calc software (Stemcell technologies).

STAT5B mRNA = test: STAT5B RT-qPCR in CP-CML cells; format: cell-based, human; conditions: CP-CML cells after 10 days of liquid culture without cytokines; normalized to GAPDH
Text: RNA extraction and RT-qPCR analysis.

STAT5 = STAT5 phosphorylation (flow cytometry) and STAT5 protein (Western blot) in K562 cells; format: cell-based; conditions: Imatinib 1 μM
Method: Intracellular STAT5 phosphorylation assays. […] Cells were fixed and permeabilized using Cytofix/Cytoperm kit (BD Pharmingen) and stained with Alexa Fluor® 488-anti-phospho-STAT5 mAb (BD Phosflow) or Alexa Fluor® 488-isotype-matched control to obtain fluorescence minus comparative in each experiment. Analysis was carried on a minimal number of 50,000 events in the viable cell gate. […] (untreated cells p-STAT5 MFI-non treated cells isotype-control MFI)-(drug treated cells p-STAT5 MR-drug treated cells isotype-control MFI). Western blot analysis. For STAT5 protein analysis, K562 cells (2.5×10^5) were lysed in RIPA lysis buffer on ice. […] Proteins were transferred to Hybond N+ filters (Amersham). Membranes were probed with the following antibodies: STAT5 (sc-1656), actin (sc-8432), and goat anti-mouse IgG-HRP (sc-2005) (Santa Cruz Biotechnology Inc.). Antibody binding was detected by the enhanced chemiluminescence ECL+ (Amersham).

[1] = Imatinib plasma levels in three CML patients; format: in vivo, human
[2] = system: human cord blood CD34+ cells expressing BCR-ABL; test: CFC assay after lentivector-mediated expression of BCR-ABL in cord blood CD34+ cells; format: cell-based; conditions: BCR-ABL vs eGFP lentivector; drug added for 48 h prior; p<0.002
Method: For CFC assays, CD34^+ cells were suspended (1×10^4) in 3 ml of alpha-MEM based methylcellulose medium (GF H4434, Stemcell Technologies). Cells were scored and collected after 14 day incubation at 37° C. and 5% CO2.
An SIV GAE-SSFV-eGFP vector was used as a control.
Cells were suspended (1×10^6/ml) in StemSpan (StemCell Technologies, France) supplemented with protamine sulfate (4 μg/ml), SCF (100 ng/ml), Flt-3-L (100 ng/ml), IL-3 (20 ng/ml), and IL-6 (20 ng/ml), in a 96-well plate coated with RetroNectin® (Takara Shuzo Co., Japan). Cell suspensions were incubated for 16 hours. Lentiviral vectors were then added and cell suspensions incubated for 12 hours. Cells were washed twice before being seeded.

CML patients [3] = test: BCR-ABL/ABL RT-qPCR follow-up of three CML patients given pioglitazone on imatinib; format: in vivo, human
CML patients [4] = test: ACTIM clinical trial: molecular response and safety; format: in vivo, human
Text: BCR-ABL transcript level was monitored every 3 months during the study period. Primary objective was the proportion of patients achieving a confirmed undetectable level of BCR-ABL transcript. Secondary objectives included cumulative incidence of CMR4.5 and safety.

[5] = ACTIM companion study: imatinib trough levels; format: in vivo, human; conditions: p=ns
[6] = pioglitazone added to imatinib, 24 evaluable patients

Method for CP-CML CD34+ cells: CSFE assays. Fresh CD34^+-enriched cells were stained with 2 μM of 5-(and 6-) carboxyfluorescein diacetate succinimidyl diester (CFSE, Invitrogen). […] Cells were harvested at variable time points as indicated, collected in BD Trucount™ tubes for absolute count (BD Biosciences) and labeled with anti-CD45 and anti-CD34. Then, cells were diluted in 1 mL of phosphate-buffered saline (PBS, Invitrogen Life Technologies) containing 2% fetal calf serum (PAA) and stained for viability. All analyses were carried out on a BD FACS Canto2 Flow Cytometer.

## Cc1ccc(NC(=O)c2ccc(CN3CCN(C)CC3)cc2)cc1Nc1nccc(-c2cccnc2)n1 [Imatinib]
CD34+ CP-CML cells; Patient 1, D 3 in culture
  viab (%): 0.1%
CD34+ CP-CML cells; Patient 1, D 7 in culture
  viab (%): 0.10%
CD34+ CP-CML cells; Patient 2, D 3 in culture
  viab (%): 31.00%
CD34+ CP-CML cells; Patient 2, D 7 in culture
  viab (%): 29.70%
CD34+ CP-CML cells; Patient 3, D 3 in culture
  viab (%): 4.10%
CD34+ CP-CML cells; Patient 3, D 7 in culture
  viab (%): 5.90%
CD34+ CP-CML cells; Patient 4, D 3 in culture
  viab (%): 86.00%
CD34+ CP-CML cells; Patient 4, D 7 in culture
  viab (%): 54.00%
CD34+ CP-CML cells; Patient 5, D 3 in culture
  viab (%): 54.5%
CD34+ CP-CML cells; Patient 5, D 7 in culture
  viab (%): 56.00%
CD34+ CP-CML cells; Patient 6, D 3 in culture
  viab (%): 85.00%
CD34+ CP-CML cells; Patient 6, D 7 in culture
  viab (%): 73.00%
CD34+ CP-CML cells; Patient 7, D 3 in culture
  viab (%): 84.00%
CD34+ CP-CML cells; Patient 7, D 7 in culture
  viab (%): 66.00%
CP-CML LTC-ICs; p=0.067 and p=0.02
  reduction of the frequency of CP-CML LTC-ICs (in words): unable to reduce significantly
STAT5B mRNA
  decrease of STAT5B mRNA levels: 1.5 fold
STAT5
  action on STAT5 phosphorylation: acts rapidly (minutes) by preventing STAT5 phosphorylation
[1]; Patient 1, imatinib 300-400 mg/day
  plasma levels: 924 ng/mL
[1]; Patient 2, imatinib 300-400 mg/day
  plasma levels: 310 ng/mL
[1]; Patient 3, imatinib 400 mg/day
  plasma levels: 790 ng/mL
CP-CML CD34+ cells; Patient 4, vs. 5% for the untreated control
  viable CD34+ cells that never divided or had divided only once: 34%
CP-CML CD34+ cells; liquid culture without cytokines
  effect on cell cycle status / quiescence: induced a selection of insensitive quiescent CML cells

## CCc1ccc(CCOc2ccc(CC3SC(=O)NC3=O)cc2)nc1 (centres unmarked) [pioglitazone]
[2]
  degree of reduction in colony forming cells (CFC), greater when BCR-ABL was expressed: 1.9 fold
CD34+ CP-CML cells; Patient 1, D 3 in culture
  Fold exp: 0.75 fold
  viab (%): 19.00%
CD34+ CP-CML cells; Patient 1, D 7 in culture
  Fold exp: 0.39 fold
  viab (%): 9.00%
CD34+ CP-CML cells; Patient 2, D 3 in culture
  Fold exp: 1.25 fold
  viab (%): 47.00%
CD34+ CP-CML cells; Patient 2, D 7 in culture
  Fold exp: 2.96 fold
  viab (%): 71.00%
CD34+ CP-CML cells; Patient 3, D 3 in culture
  Fold exp: 0.27 fold
  viab (%): 9.90%
CD34+ CP-CML cells; Patient 3, D 7 in culture
  Fold exp: 1.69 fold
  viab (%): 17.90%
CD34+ CP-CML cells; Patient 4, D 3 in culture
  Fold exp: 2.02 fold
  viab (%): 93.00%
CD34+ CP-CML cells; Patient 4, D 7 in culture
  Fold exp: 1.67 fold
  viab (%): 54.00%
CD34+ CP-CML cells; Patient 5, D 3 in culture
  Fold exp: 1.32 fold
  viab (%): 73.00%
CD34+ CP-CML cells; Patient 5, D 7 in culture
  Fold exp: 0.93 fold
  viab (%): 86.00%
CD34+ CP-CML cells; Patient 6, D 3 in culture
  Fold exp: 1.69 fold
  viab (%): 88.00%
CD34+ CP-CML cells; Patient 6, D 7 in culture
  Fold exp: 1.87 fold
  viab (%): 85.00%
CD34+ CP-CML cells; Patient 7, D 3 in culture
  Fold exp: 0.86 fold
  viab (%): 84.00%
CD34+ CP-CML cells; Patient 7, D 7 in culture
  Fold exp: 1.48 fold
  viab (%): 33.00%
CD34+ CP-CML cells; D 3 in culture
  Fold exp, mean: 1.17 fold
CD34+ CP-CML cells; D 7 in culture
  Fold exp, mean: 1.54 fold
CP-CML LTC-ICs; limiting dilution analysis
  reduction of the frequency of CP-CML LTC-ICs: 2.4 fold
STAT5B mRNA
  decrease of STAT5B mRNA levels: 8.5 fold
CML patients [3]; Patient 1, pioglitazone 30 mg/day added after 5 years of imatinib therapy
  duration of CMR(Slog): 56 months
CML patients [3]; Patient 2, pioglitazone 30 mg/day added after 6 year of imatinib therapy, then withdrew
  duration of CMR(Slog): 12 months
CML patients [3]; Patient 3
  time without molecular relapse after stopping imatinib treatment: 6 months
CML patients [3]; Patient 3, pioglitazone 45 mg/day added to imatinib
  time to CMR(Slog): 6 months
CML patients [3]; Patient 3, pioglitazone 45 mg/day added to imatinib 400 mg/day
  duration of CMR(Slog): 28 months
CML patients [4]; pioglitazone 30 mg/d 2 months then 45 mg/d added to imatinib, 24 evaluable patients
  patients with a confirmed undetectable level of BCR-ABL transcript: 14%
CML patients [4]; [6]
  discontinuation due to adverse events: No patient discontinued due to adverse events
  main adverse events: weight gain and worsening fluid retention in 3 patients
CML patients [4]; pioglitazone added to imatinib, control group 27% (p=0.02)
  one year cumulative incidence of CMR4.5: 57%
[5]
  interaction between imatinib and pioglitazone in term of through level: No interaction; also recorded: lack of interaction
